pIC50: −log10 of the molar value. *1 amine or outer side, *2 acyl side, *3 side chain or, on linkers, in order; H or OH if unused. Where a SMILES comes first, the peptide text is derived from it. [ ]: non-standard residue; d: D form. X1 = O=C1CCN([*:1])CCN1[C@@H](Cc1ccccc1)C(=O)[*:2]
Legend:
[1] = biological target: T1, 3CLPro enzyme, the main protease of SARS-CoV-2 (Severe acute respiratory syndrome coronavirus 2, UniProt P0DTD1); experiment: biochemical; type: biochemical; settings: for % In(3CLPro) at 100 μM: pH 7
T1 construct: 3CLPro enzyme, the main protease of SARS-CoV-2

[2] = biological target: SARS-CoV-2 spike/ACE2 complex (RBD of Spike S protein binding to human receptor ACE2) (Severe acute respiratory syndrome coronavirus 2, UniProt P0DTC2); experiment: biochemical; set-up: species or system SARS-CoV-2 / human
[3] = system: SARS-CoV-2 infection; settings: cited from earlier work

NC(=O)CC[C@H](NC(=O)[C@H](Cc1ccc(O)cc1)NC(=O)[C@H](Cc1ccccc1)N1CCN(C(=O)[C@H](CC(=O)O)NC(=O)[C@@H](N)CCC(=O)O)CC1=O)C(N)=O [compound 15, H-ED(4b)YQ-NH2]
pIC50 [1]: 4.82 | % In(3CLPro) at 100 μM [1]: 90–91%

NC(=O)CC[C@H](NC(=O)[C@H](Cc1ccc(O)cc1)NC(=O)[C@H](Cc1ccccc1)N1CCN(C(=O)[C@H](CC(=O)O)NC(=O)[C@@H](N)CCC(=O)O)CCC1=O)C(N)=O [compound 16, H-ED(11b)YQ-NH2] (H-ED[X1]YQ-NH2)
pIC50 [1]: 3.90 | % In(3CLPro) at 100 μM [1]: 45–57% | % In(spike–ACE2) at 100 μM [2]: 66–76% | pIC50 [2]: 4.70

H-EDLFYQ-NH2 [EDLFYQ (SAP-6)]
inhibition potency toward SARS-CoV-2 infection [3]: millimolar range

Reference: article PMC9454270, “Peptidomimetic Small-Molecule Inhibitors of 3CLPro Activity and Spike–ACE2 Interaction: Toward Dual-Action Molecules against Coronavirus Infections” (The Journal of Organic Chemistry, 2022)
